The data set can be described thus: solvent given as SMILES.

The text below walks through data of the Deep4Chem optical property database.

Turning to `CCCOc1ccc(/C=C/C=C/C=C/c2ccc([N+](=O)[O-])cc2)cc1`, the absorption maximum runs as follows: (in CC1CCCCC1) 414 nm; (in CC#N) 413 nm; (in Cc1ccccc1) 420 nm; (in ClCCl) 421 nm.
For `Cc1ccc(S(=O)(=O)/N=c2\oc3cccc4c5c(-c6ccccc6)oc6cccc(c(c2-c2ccccc2)c34)c65)cc1`, the absorption maximum (in ClC(Cl)Cl) was determined as 445 nm.
For the setting “in ClCCl”, `CC1=[N+]2C(=Cc3c4c(cn3[B-]2(F)F)-c2nc-4c(-c3ccccc3)c3ccc([nH]3)c(-c3ccccc3)c3nc(c(-c4ccccc4)c4ccc([nH]4)c2-c2ccccc2)C=C3)C(C)C1` (centres undefined) gave an absorption maximum of 640 nm.
Turning to `CCCCn1c2ccccc2c2ccc3c4cc(-c5cccc(F)c5)ccc4n(CCCC)c3c21`, for the setting “in ClC(Cl)Cl”, the absorption maximum is reported as 328 nm.
The same measure, in the same setting: for `CCCCCCCCN1C(=O)c2ccc3c4c(-c5ccc(N(c6ccccc6)c6ccccc6)cc5)cc5c6c(cc(-c7ccc(N(c8ccccc8)c8ccccc8)cc7)c(c7ccc(c2c37)C1=O)c64)C(=O)N(CCCCCCCC)C5=O` the value was 606 nm.
For `F[B-]1(F)OC(c2ccccc2)=Cc2cc3[n+](c[n+]21)[B-](F)(F)OC(c1ccccc1)=C3`, the absorption maximum (in ClCCl) was determined as 475 nm.
Still for that read-out and setting: for `F[B-]1(F)n2c(Oc3ccccc3)c(Cl)c3c2C(=C2C(Br)=C(Cl)C(Oc4ccccc4)=[N+]21)Oc1ccccc1-3` the value was 472 nm.
For the setting “in CC#N”, `N#Cc1ccc(-n2nc(C#N)c(N3CCCC3)n2)cc1` displayed an absorption maximum of 362 nm.
For the setting “in C1CCOC1”, `Cc1cscc1-c1cc2c3cc(-c4cscc4C)c4nc(C(F)(F)C(F)(F)C(F)(F)F)nc5c(-c6cscc6C)cc(c6cc(-c7cscc7C)c7nc(C(F)(F)C(F)(F)C(F)(F)F)nc1c7c26)c3c45` gave an absorption maximum of 493 nm.
Take `CCN=C=S`: the absorption maximum (in CCCCCC) is recorded as 250 nm.
For `c1cc2ccc1CCCc1cc3c(cc1CCCc1ccc(c4nsnc14)CCC3)CCC2`, the absorption maximum reads like this: (in C1CCCCC1) 402 nm; (in CC#N) 403 nm; (in ClC(Cl)Cl) 402 nm.
For the setting “in Cc1ccccc1”, `CCCC1=Cc2nc1ccc1[nH]c(c3nc(ccc4[nH]c2cc4CCC)C(CCC)=C3)c(CN(C)C)c1CCC` displayed an absorption maximum of 643 nm.
In turn, `CCCCN1C(=O)C2=C(c3ccc(-c4ccc5c(c4)C(C)(C)c4ccccc4-5)cc3)NC(=O)C2=C1c1ccc(-c2ccc3c(c2)C(C)(C)c2ccccc2-3)cc1` yielded an absorption maximum (in ClCCl) of 497 nm.
For `CCc1c(C)c2n(c1C)[B-](F)(F)[N+]1=C(c3ccc[nH]3)c3ccccc3C1=C2C`, the absorption maximum runs as follows: (in C1CCOC1) 604 nm; (in CC#N) 597 nm; (in CCCCCC) 604 nm; (in CO) 599 nm; (in Cc1ccccc1) 609 nm; (in ClCCl) 605 nm.
`O=C(O)CCCc1cc(C#Cc2ccccc2)c2ccc3c(C#Cc4ccccc4)cc(C#Cc4ccccc4)c4ccc1c2c34`: the absorption maximum is given as 451 nm (in CS(C)=O) and 445 nm (in ClC(Cl)(Cl)Cl).
Turning to `c1ccc2c(-c3cc4c(ccc5sccc54)s3)cccc2c1`, the absorption maximum (in ClCCl) was determined as 307 nm.
As for `O=C1c2ccc3c4ccc5c6c(ccc(c7ccc(c2c37)C(=O)N1c1ccncc1)c64)C(=O)N(c1ccncc1)C5=O`, the absorption maximum is, setting by setting: (in C1CCOC1) 522 nm; (in C1COCCO1) 525 nm; (in CC(C)=O) 519 nm; (in CC(C)O) 525 nm; (in CCCCO) 525 nm; (in CCO) 524 nm. This molecule yielded an absorption maximum (in CCOC(C)=O) of 519 nm; an absorption maximum (in CN(C)C=O) of 524 nm; an absorption maximum (in CO) of 525 nm; an absorption maximum (in CS(C)=O) of 528 nm; an absorption maximum (in ClC(Cl)(Cl)Cl) of 524 nm; an absorption maximum (in ClC(Cl)Cl) of 530 nm.
